Key:
[1] = target: Sigma non-opioid intracellular receptor 1 (Homo sapiens, UniProt Q99720); experiment: Displacement of [3H](+)-pentazocine from S1R in human Jurkat cell membranes after 2 hrs by liquid scintillation counting
SH-SY5Y = experiment: Cytotoxicity against human SH-SY5Y cells assessed as reduction in cell viability after 72 hrs by MTT assay; assay type: cell-based
[2] = target: Sigma intracellular receptor 2 (Homo sapiens, UniProt Q5BJF2); experiment: Displacement of [3H]-DTG from S2R in human Jurkat cell membranes after 1 hr in presence of (+)-pentazocine by liquid scintillation counting
S1R (sigma-1 receptor) = experiment: Selectivity index, ratio of IC50 for human SH-SY5Y cells to Ki for S1R in human Jurkat cell membranes; assay type: toxicity, cell-based

Sigma non-opioid intracellular receptor 1, sequence (Q99720 whole entry): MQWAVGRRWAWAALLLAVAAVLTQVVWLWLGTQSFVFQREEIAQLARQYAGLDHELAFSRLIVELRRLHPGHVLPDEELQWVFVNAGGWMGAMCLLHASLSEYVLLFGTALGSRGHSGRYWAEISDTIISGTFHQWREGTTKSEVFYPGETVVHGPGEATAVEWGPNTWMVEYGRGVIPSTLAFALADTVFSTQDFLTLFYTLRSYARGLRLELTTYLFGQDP
Sigma intracellular receptor 2, sequence (Q5BJF2 whole entry): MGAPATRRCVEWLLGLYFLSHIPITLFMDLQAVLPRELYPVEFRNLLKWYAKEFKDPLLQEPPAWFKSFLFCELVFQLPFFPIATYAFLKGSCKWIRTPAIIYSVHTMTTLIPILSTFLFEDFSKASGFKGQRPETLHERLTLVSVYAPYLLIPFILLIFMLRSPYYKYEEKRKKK

| Compound | Ki [1] | Ki [2] | IC50 (SH-SY5Y) | selectivity ratio (S1R (sigma-1 receptor)) |
| --- | --- | --- | --- | --- |
| O=C(NCCN1CCOCC1)c1ccc(Cl)cc1 [MOCLOBEMIDE] | > 100 nM | > 200 nM | > 100000 nM |  |
| CN(CCCNC(=O)c1cccc(Cl)c1)Cc1ccccc1 |  |  | > 100000 nM | > 10000 |
| O=C(NCCCN1CCOCC1)c1ccc(Cl)cc1 [EPROBEMIDE] | > 100 nM | > 200 nM | > 100000 nM |  |
| CN(CCCNC(=O)c1cc(Cl)cc(Cl)c1)Cc1ccccc1 |  |  | 60000 nM | 2610 |
| CN(CCCNC(=O)c1ccc(F)cc1)Cc1ccccc1 |  |  | > 100000 nM | > 5000 |

Second part, led by results:

| Ki [1] | Ki [2] | Compound | IC50 (SH-SY5Y) | selectivity ratio (S1R (sigma-1 receptor)) |
| --- | --- | --- | --- | --- |
| 19 nM | 350 nM | O=C(NCCCN1Cc2ccccc2C1)c1ccc(Cl)cc1 | > 100000 nM | > 5260 |
| > 100 nM | > 200 nM | O=C(NCCN1CCCC1)c1ccc(Cl)cc1 | > 100000 nM |  |
| 6.5 nM | 110 nM | CN(CCNC(=O)c1cccc(Cl)c1Cl)Cc1ccccc1 | > 100000 nM | > 15400 |
|  | 200 nM | CN(CCCNC(=O)c1ccc(Br)cc1F)Cc1ccccc1 | > 100000 nM | > 34500 |
| > 100 nM | > 200 nM | CN1CCN(CCNC(=O)c2ccc(Cl)cc2)CC1 | > 100000 nM |  |
